Patent publication US9561228B2 (Celgene Avilomics Research, Inc., priority 2013, dated 2017)

Experiments:
[1] = tested on: ERK1/2 phosphorylation of p90RSK in HT29 cells; assay: pRSK MSD Assay in HT29 cells; assay type: cell-based; settings: Homo sapiens, HT-29, read-out: ERK1/ERK2 PRSK MSD HT29 EC50
Summary of the method: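 Phospho-RSK level, read by electrochemiluminescence on RSK-antibody-coated MSD plates with a phospho-RSK/Sulfo-tag detection pair, reports cellular ERK1/2 activity. HT29 cells, kept overnight in 0.1% FBS medium, were exposed to compound for 120 min at 37° C before lysis.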

[2] = tested on: ERK1/2 phosphorylation of p90RSK in A375 cells; assay: Detection of total and phosphor-RSK by MSD ELISA (A375); assay type: cell-based; settings: Homo sapiens, A-375, read-out: ERK1/ERK2 PRSK A375 EC50
Summary of the method: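 Electrochemiluminescent MSD ELISA: common RSK capture antibody, with pRSK Ser380 or total RSK detection antibodies plus SulfoTag secondaries. Samples were lysates of A375 cells exposed to compound for 2 h at 37° C after overnight culture in 0.1% FBS DMEM.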

| SMILES | EC50 [1] [nM] | EC50 [2] [nM] |
| --- | --- | --- |
| C=CC(=O)Nc1ccccc1Nc1nc(N[C@H]2CCN(C(C)=O)C2)ncc1C(F)(F)F [Compound I-56, (S)—N-(2-((2-((1-Acetylpyrrolidin-3-yl)amino)-5-(trifluoromethyl)pyrimidin-4-yl)amino)phenyl)acrylamide] | 101 to 500 | – |
| C=CC(=O)Nc1ccccc1Nc1nc(N[C@H]2CCN(C(=O)CO)C2)ncc1C(F)(F)F [Compound I-57, (S)—N-(2-((2-((1-(2-Hydroxyacetyl)pyrrolidin-3-yl)amino)-5-(trifluoromethyl)pyrimidin-4-yl)amino)phenyl)acrylamide] | 101 to 500 | – |
| C=CC(=O)Nc1ccccc1Nc1nc(N[C@H]2CCN(S(C)(=O)=O)C2)ncc1C(F)(F)F [Compound I-58, (S)—N-(2-((2-((1-(Methylsulfonyl)pyrrolidin-3-yl)amino)-5-(trifluoromethyl)pyrimidin-4-yl)amino)phenyl)acrylamide] | 101 to 500 | – |
| C=CC(=O)Nc1ccccc1Nc1nc(N[C@H]2CCN(C(=O)OC)C2)ncc1C(F)(F)F [Compound I-59, (S)-methyl 3-((4-((2-Acrylamidophenyl)amino)-5-(trifluoromethyl)pyrimidin-2-yl)amino)pyrrolidine-1-carboxylate] | > 1000 | – |
| C=CC(=O)Nc1ccccc1Nc1nc(N[C@@H]2CCN(C(C)=O)C2)ncc1C(F)(F)F [Compound I-60, (R)—N-(2-((2-((1-Acetylpyrrolidin-3-yl)amino)-5-(trifluoromethyl)pyrimidin-4-yl)amino)phenyl)acrylamide] | > 1000 | – |
| C=CC(=O)Nc1cc(OC)ccc1Nc1nc(N[C@H]2CCCN(C(=O)CO)C2)ncc1C(F)(F)F [Compound I-64, (S)—N-(2-((2-((1-(2-Hydroxyacetyl)piperidin-3-yl)amino)-5-(trifluoromethyl)pyrimidin-4-yl)amino)-5-methoxyphenyl)acrylamide] | < 100 | 101 to 500 |
| C=CC(=O)Nc1ccccc1Nc1nc(Nc2cc(C(N)=O)ccc2C)ncc1C(F)(F)F [Compound I-68, 3-(4-(2-Acrylamidophenylamino)-5-(trifluoromethyl)pyrimidin-2-ylamino)-4-methylbenzamide] | < 100 | 101 to 500 |
| C=CC(=O)Nc1cc(OC)ccc1Nc1nc(Nc2cc(OC)nc(N3CCN(CC)CC3)c2)ncc1C(F)(F)F [Compound I-88, N-(2-((2-((2-(4-Ethylpiperazin-1-yl)-6-methoxypyridin-4-yl)amino)-5-(trifluoromethyl)pyrimidin-4-yl)amino)-5-methoxyphenyl)acrylamide] | 101 to 500 | 101 to 500 |
| C=CC(=O)Nc1cc(C)ccc1Nc1nc(Nc2cc(OC)nc(N3CCN(CC)CC3)c2)ncc1C(F)(F)F [Compound I-89, N-(2-((2-((2-(4-Ethylpiperazin-1-yl)-6-methoxypyridin-4-yl)amino)-5-(trifluoromethyl)pyrimidin-4-yl)amino)-5-methylphenyl)acrylamide] | 101 to 500 | 101 to 500 |
| C=CC(=O)Nc1cc(C)ccc1Nc1nc(Nc2cc(OC)ncc2C)ncc1C(F)(F)F [Compound I-90, N-(2-((2-((2-Methoxy-5-methylpyridin-4-yl)amino)-5-(trifluoromethyl)pyrimidin-4-yl)amino)-5-methylphenyl)acrylamide] | < 100 | < 100 |
| C=CC(=O)Nc1cc(OC)ccc1Nc1nc(Nc2cc(OC)nc(N3CCN(C(C)=O)CC3)c2)ncc1C(F)(F)F [Compound I-91, N-(2-((2-((2-(4-Acetylpiperazin-1-yl)-6-methoxypyridin-4-yl)amino)-5-(trifluoromethyl)pyrimidin-4-yl)amino)-5-methoxyphenyl)acrylamide] | 101 to 500 | < 100 |
| C=CC(=O)Nc1cc(C)ccc1Nc1nc(Nc2cc(OC)nc(N3CCOCC3)c2)ncc1C(F)(F)F [Compound I-94, N-(2-((2-((2-Methoxy-6-morpholinopyridin-4-yl)amino)-5-(trifluoromethyl)pyrimidin-4-yl)amino)-5-methylphenyl)acrylamide] | < 100 | 101 to 500 |
| C=CC(=O)Nc1ccccc1Nc1nc(Nc2cc(OC)nc(OC)c2)ncc1C(F)(F)F [Compound I-95, N-(2-((2-((2,6-Dimethoxypyridin-4-yl)amino)-5-(trifluoromethyl)pyrimidin-4-yl)amino)phenyl)acrylamide] | < 100 | < 100 |
| C=CC(=O)Nc1ccccc1Nc1nc(N[C@H]2CCCN(C(C)=O)C2)ncc1Cl [Compound I-115, (S)—N-(2-((2-((1-acetylpiperidin-3-yl)amino)-5-chloropyrimidin-4-yl)amino)phenyl)acrylamide] | < 100 | – |
| C=CC(=O)Nc1cc(C)ccc1Nc1nc(N[C@H]2CCCN(C(=O)CO)C2)ncc1Cl [Compound I-140, (S)—N-(2-((5-chloro-2-((1-(2-hydroxyacetyl)piperidin-3-yl)amino)pyrimidin-4-yl)amino)-5-methylphenyl)acrylamide] | < 100 | < 100 |
| C=CC(=O)Nc1cc(C)ccc1Nc1nc(Nc2cc(C(N)=O)ccn2)ncc1Cl [Compound I-238, 2-((4-((2-acrylamido-4-methylphenyl)amino)-5-chloropyrimidin-2-yl)amino)isonicotinamide] | < 100 | – |
| C=CC(=O)Nc1cc(OC)ccc1Nc1nc(Nc2cc(OC)ncc2C)ncc1Cl [Compound I-242, N-(2-((5-chloro-2-((2-methoxy-5-methylpyridin-4-yl)amino)pyrimidin-4-yl)amino)-5-methoxyphenyl)acrylamide] | < 100 | < 100 |
| C=CC(=O)Nc1cc(OC)ccc1Nc1nc(Nc2cc(Cl)nc(OC)c2)ncc1Cl [Compound I-245, N-(2-((5-chloro-2-((2-chloro-6-methoxypyridin-4-yl)amino)pyrimidin-4-yl)amino)-5-methoxyphenyl)acrylamide] | < 100 | – |
| C=CC(=O)Nc1ccccc1Nc1nc(Nc2cc(Cl)nc(OC)c2)ncc1Cl [Compound I-246, N-(2-((5-chloro-2-((2-chloro-6-methoxypyridin-4-yl)amino)pyrimidin-4-yl)amino)phenyl)acrylamide] | < 100 | – |
| C=CC(=O)Nc1ccccc1Nc1nc(Nc2cc(OC)nc(N3CCCC3)c2)ncc1C(F)(F)F [Compound I-281, N-(2-((2-((2-Methoxy-6-(pyrrolidin-1-yl)pyridin-4-yl)amino)-5-(trifluoromethyl)pyrimidin-4-yl)amino)phenyl)acrylamide] | < 100 | < 100 |
| C=CC(=O)Nc1ccccc1Nc1nc(Nc2cc(OC)nc(N3CCCCC3)c2)ncc1C(F)(F)F [Compound I-282, N-(2-((2-((2-Methoxy-6-(piperidin-1-yl)pyridin-4-yl)amino)-5-(trifluoromethyl)pyrimidin-4-yl)amino)phenyl)acrylamide] | 101 to 500 | < 100 |
| C=CC(=O)Nc1ccccc1Nc1nc(Nc2cc(OC)nc(OCCOC)c2)ncc1C(F)(F)F [Compound I-283, N-(2-((2-((2-Methoxy-6-(2-methoxyethoxyl)pyridin-4-yl)amino)-5-(trifluoromethyl)pyrimidin-4-yl)amino)phenyl)acrylamide] | < 100 | < 100 |
| C=CC(=O)Nc1cc(OC)ccc1Nc1nc(Nc2cc(OC)ncc2C)ncc1C(F)(F)F [Compound I-284, N-(5-Methoxy-2-((2-((2-methoxy-5-methylpyridin-4-yl)amino)-5-(trifluoromethyl)pyrimidin-4-yl)amino)phenyl)acrylamide] | < 100 | < 100 |
| C=CC(=O)Nc1ccccc1Nc1nc(Nc2cc(F)ccc2C)ncc1C(F)(F)F [Compound I-285, N-(2-((2-((5-Fluoro-2-methylphenyl)amino)-5-(trifluoromethyl)pyrimidin-4-yl)amino)phenyl)acrylamide] | 101 to 500 | > 1000 |
| C=CC(=O)Nc1ccccc1Nc1nc(Nc2cc(NCCOC)nc(OC)c2)ncc1C(F)(F)F [Compound I-286, N-(2-((2-((2-Methoxy-6-((2-methoxyethyl)amino)pyridin-4-yl)amino)-5-(trifluoromethyl)pyrimidin-4-yl)amino)phenyl)acrylamide] | < 100 | < 100 |
| C=CC(=O)Nc1ccccc1Nc1nc(Nc2ccnc(F)c2)ncc1C(F)(F)F [Compound I-287, N-(2-((2-((2-Fluoropyridin-4-yl)amino)-5-(trifluoromethyl)pyrimidin-4-yl)amino)phenyl)acrylamide] | < 100 | < 100 |
| C=CC(=O)Nc1ccccc1Nc1nc(Nc2cc(N[C@H]3CC[C@@H](O)CC3)nc(OC)c2)ncc1C(F)(F)F [Compound I-292] | – | < 100 |
| C=CC(=O)Nc1ccccc1Nc1nc(Nc2cc(OC)nc(N3CCN(C)CC3)c2)ncc1C(F)(F)F [Compound I-324, N-(2-((2-((2-methoxy-6-(4-methylpiperazin-1-yl)pyridin-4-yl)amino)-5-(trifluoromethyl)pyrimidin-4-yl)amino)phenyl)acrylamide] | – | 101 to 500 |
| C=CC(=O)Nc1cc(C)ccc1Nc1nc(Nc2cc(N[C@H]3CC[C@@H](O)CC3)nc(OC)c2)ncc1C(F)(F)F [Compound I-326, N-(2-((2-((2-((cis-4-hydroxycyclohexyl)amino)-6-methoxypyridin-4-yl)amino)-5-(trifluoromethyl)pyrimidin-4-yl)amino)-5-methylphenyl)acrylamide] | – | < 100 |
| C=CC(=O)Nc1cc(C)ccc1Nc1nc(Nc2cc(OC)cc(OC)c2)ncc1C(F)(F)F [Compound I-339, N-(2-((2-((3,5-dimethoxyphenyl)amino)-5-(trifluoromethyl)pyrimidin-4-yl)amino)-5-methylphenyl)acrylamide] | – | 501 to 999 |
